Measurements reported in patent publication US11485993B2, “Therapeutic drug monitoring” (Fastinov S.A., priority 2017, dated 2022).

Assays:
[1] = test system: S. aureus ATCC 29213; experiment: Flow cytometric measurement of the antimicrobial activity of vancomycin in human serum; format: cell-based; settings: S. aureus ATCC 29213, flow cytometry, FIGS. 5A and 5B
Experimental: Material and Methods. S. aureus ATCC 29213 was incubated for 1 hour with serial concentrations of vancomycin (4 μg/ml to 0.03 μg/ml) in donor drug free human serum and stained with adequate fluorochrome. The intensity of fluorescence and the changes in the scattergram of the bacterial population were recorded after flow cytometry analysis. Twenty samples of serum collected from patients receiving vancomycin were obtained from the biochemistry lab. The vancomycin drug concentrations were analyzed by Architect iVancomycin (Abbott) using the Architect i1000 SR analyzer (Abbott). Architect iVancomycin is an in vitro chemiluminescent microparticle immunoassay (CMIA) for the quantitative measurement of vancomycin in human serum or plasma. In parallel, serum samples were incubated with the S. aureus control strain, after 10 serial dilutions (1:2) and analyzed by flow cytometry (Accury, BD) according the protocol described in Example 1. A flow cytometric template of cell analysis was defined in order to include the majority of the bacterial population. A comparison of the concentrations obtained with the Architect iVancomycin method and with the new flow cytometric method was performed using Student's T test.

[2] = test system: E. coli ATCC 25922; experiment: Flow cytometric measurement of the antimicrobial activity of colistin in human plasma; format: cell-based
Experimental: Serial dilutions of colistin (Sigma), ranging between 0.008 and 2 μg/ml, were inoculated in human plasma (free of colistin) and incubated with E. coli ATCC 25922 during 60 minutes and afterwards stained with a fluorescent dye and analyzed in a flow cytometer (Accuri, BD) using a protocol previously optimized (FIG. 3): a flow cytometric template of cell analysis was defined in order to include the majority of the bacterial population and at least 20,000 cells are analyzed according size, complexity and intensity of fluorescence on the different fluorescent channels.

Compound | cellular lesion with increasing concentration (reduction of cell density plot, increase of intensity of fluorescence) [1] | morphological changes of the bacterial cell population after serial increasing concentrations ([2]; E. coli ATCC 25922, flow cytometry scattergrams) | amount of cells at the acquisition gate after incubation with increasing concentrations ([2]; E. coli ATCC 25922, flow cytometry, FIG. 4)
CN[C@H](CC(C)C)C(=O)N[C@H]1C(=O)N[C@@H](CC(N)=O)C(=O)N[C@H]2C(=O)N[C@H]3C(=O)N[C@H](C(=O)N[C@H](C(=O)O)c4cc(O)cc(O)c4-c4cc3ccc4O)[C@H](O)c3ccc(c(Cl)c3)Oc3cc2cc(c3O[C@@H]2O[C@H](CO)[C@@H](O)[C@H](O)[C@H]2O[C@H]2C[C@](C)(N)[C@H](O)[C@H](C)O2)Oc2ccc(cc2Cl)[C@H]1O [vancomycin] | a dose effect cellular lesion is evident |  | 
colistin |  | Morphological changes were evident | a dose-dependent effect was achieved
